The record followed here is EP1614683B1, “Indazole compounds and pharmaceutical compositions for inhibiting protein kinases, and methods for their use” (priority 1999, dated 2001).

Where two headings read alike, the source gives them in different places.

Series [1] has as its target unphosphorylated VEGF-R2Δ50 (Homo sapiens, UniProt P35968, DEL940-989/E990V). Put plainly: biochemical. The following applies: read-out: FLVK* (% inhibition).
Series [2] deals with T1, truncated catalytic subunit (gamma subunit) of phosphorylase kinase (amino acids 1-298) (Oryctolagus cuniculus, UniProt P00518).
T1 construct: (gamma subunit) of phosphorylase kinase (amino acids 1-298); made in house
Put plainly: Phosphorylase kinase assay. It is filed as biochemical. The following applies: 10 µM of compound; phosphoryl transfer from ATP to phosphorylase b.
Experimental: In the assay, the purified catalytic subunit is used to phosphorylate phosphorylase b using radiolabled ATP. Briefly, 1.5 mg/ml of phosphorylase b is incubated with 10 nM phosphorylase kinase in 10 mM MgCl2, 50 mM Hepes pH 7.4, at 37 °C. […] The reaction was terminated and proteins were precipitated by the addition of TCA to 10% final concentration. […] The filter plate was then extensively washed with 20% TCA, and dried. Scintilation fluid was then added to the plate and incorporated radiolabel was counted on a Wallac microbeta counter.

The target of series [3] is T2, CDK4/Cyclin D3 complex (Homo sapiens, UniProt P11802). In words: biochemical. The following applies: read-out: CDK4* (% inhibition @ 5 µM).
Another series concerns HCT-116. Put plainly: HCT-116 cell assay (Table 2). It is filed as cell-based. The following applies: Homo sapiens.
Another series addresses T3, human CHK1 (FL-CHK1) (Homo sapiens, UniProt O14757).
T3 construct: C-terminally His-tagged full-length human CHK1 (FL-CHK1) was expressed using the baculovirus/insect cell system; made in house; host or cells: baculovirus/insect cell system
T3 sequence (O14757 1-476): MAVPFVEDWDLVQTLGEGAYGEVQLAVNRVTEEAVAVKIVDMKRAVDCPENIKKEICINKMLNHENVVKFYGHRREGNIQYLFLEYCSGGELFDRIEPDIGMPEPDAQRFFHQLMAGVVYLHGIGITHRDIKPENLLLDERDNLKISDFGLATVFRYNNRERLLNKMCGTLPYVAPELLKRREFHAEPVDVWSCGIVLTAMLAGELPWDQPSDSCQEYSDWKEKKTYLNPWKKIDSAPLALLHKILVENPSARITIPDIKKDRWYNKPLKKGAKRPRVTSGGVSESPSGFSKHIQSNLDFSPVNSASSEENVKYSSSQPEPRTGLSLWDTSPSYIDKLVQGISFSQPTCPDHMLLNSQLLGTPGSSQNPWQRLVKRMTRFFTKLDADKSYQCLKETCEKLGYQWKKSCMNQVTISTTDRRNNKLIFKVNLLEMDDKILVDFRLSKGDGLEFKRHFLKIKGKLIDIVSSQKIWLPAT
Put plainly: CHK1 coupled spectrophotometric assay. The following applies: read-out: CHK1* (% inhibition). It is filed as biochemical. The essentials: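 His-tagged full-length human CHK1 from baculovirus/insect cells, 10 nM, phosphorylating Syntide-2. ADP formation coupled via PK/LDH with PEP to NADH oxidation, followed as absorbance decrease at 340 nm. Ki from initial rates at varying compound concentrations.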

A further series has as its target human FGF-R1 (Homo sapiens, UniProt P11362, C488A/C584S/L457V). Put plainly: FGF-R spectrophotometric assay. It is filed as biochemical. The following applies: read-out: FGF* (% inhibition). The protocol:
The spectrophotometric assay was carried out as described above for VEGF-R2, except for the following changes in concentration: FGF-R = 50 nM, ATP = 2 mM, and poly(E4Y1) =15 mM.

In the next series the target is LCK tyrosine kinase (Homo sapiens, UniProt P06239, C224D/P223M). Put plainly: LCK spectrophotometric assay. It is filed as biochemical. The protocol: The spectrophotometric assay was carried out as described above for VEGF-R2, except for the following changes in concentration: LCK = 60 nM, MgCl2 = 0 mM, poly(E4Y1) = 20 mM.
The target in series [4] is T2, CDK4/Cyclin D3 complex. The following applies: read-out: CDK4 * (Ki, cell in µM); Table 1.
The next series concerns the target CDK2/Cyclin A complex (Homo sapiens, UniProt P24941). Put plainly: CDK2/Cyclin A assay ([32P]ATP incorporation into Rb fragment). It is filed as biochemical. The following applies: Table 1; read-out: CDK2 * (Ki, cell in µM).
The next series addresses T4, human FAK (FAKcd409) (Homo sapiens, UniProt Q05397, P410T).
T4 construct: comprises residues methionine 409 to glutamate 689; made in house; host or cells: baculovirus vector expression system (insect cells)
Put plainly: FAK fluorescence polarization assay. It is filed as biochemical. The following applies: read-out: % Inhibition FAK, compound tested at 10 µM. The essentials:
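Baculovirus-expressed FAK catalytic domain (FAKcd409, 5 nM) phosphorylating 1 mg/ml poly Glu-Tyr (4:1) with 1 mM ATP in 100 mM Hepes pH 7.5, 10 mM MgCl2, 1 mM DTT. Stopped with EDTA; fluorescent peptide and anti-phosphotyrosine antibody added, product detected by fluorescence polarization.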

The test system of series [5] is human umbilical vein endothelial cells (HUVEC). Put plainly: HUVEC proliferation assay (VEGF-stimulated, MTT). It is filed as cell-based. The following applies: Homo sapiens, HUVEC, read-out: HUVEC IC50.
The target in series [6] is T5, phosphorylated Tie-2 (aa 775-1122) (Homo sapiens, UniProt Q02763).
T5 construct: 4 to 12 nM phosphorylated Tie-2 (aa 775-1122); made in house; host or cells: insect cells
In words: TIE-2 spectrophotometric assay. It is filed as biochemical. The following applies: read-out: % Inhibition Tie2-P, compound tested at 10 µM. In outline:
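Human phosphorylated Tie-2 kinase activity was measured spectrophotometrically by coupling ADP formation, from phosphoryl transfer to poly(Glu4 Tyr), to NADH oxidation via pyruvate kinase and lactate dehydrogenase. Absorbance loss at 340 nm was read on a Beckman DU650. Reactions held 1 mM phosphoenolpyruvate, 0.24 mM NADH, 40 mM MgCl2, 5 mM DTT, 0.5 mM ATP, and 15 units/mL each of PK and LDH in 100 mM HEPES, pH 7.5.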

The nature of series [7]: Isomer stability under assay conditions. The following applies: Z-isomer, isolated pure. It is filed as physicochemical. The protocol: Reference Example 33(h) was prepared in the same reaction as Reference Example 33(d). […] Found: C (66.36), H (4.08), N (11.49), S (6.55).
Where [8] appears, read: Table 1, compound concentration 1 µM, read-out: Lck-P* (% inhibition).

T2 sequence (P11802 whole entry): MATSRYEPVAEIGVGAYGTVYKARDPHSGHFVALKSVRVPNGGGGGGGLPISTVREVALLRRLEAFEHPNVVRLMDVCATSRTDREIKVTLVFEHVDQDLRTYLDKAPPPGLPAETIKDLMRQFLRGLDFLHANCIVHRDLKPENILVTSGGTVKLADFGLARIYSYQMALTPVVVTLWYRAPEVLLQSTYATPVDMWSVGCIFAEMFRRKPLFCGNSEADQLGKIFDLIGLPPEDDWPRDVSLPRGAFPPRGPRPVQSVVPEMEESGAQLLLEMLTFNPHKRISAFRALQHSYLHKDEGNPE
T2 sequence (P30281 whole entry partner): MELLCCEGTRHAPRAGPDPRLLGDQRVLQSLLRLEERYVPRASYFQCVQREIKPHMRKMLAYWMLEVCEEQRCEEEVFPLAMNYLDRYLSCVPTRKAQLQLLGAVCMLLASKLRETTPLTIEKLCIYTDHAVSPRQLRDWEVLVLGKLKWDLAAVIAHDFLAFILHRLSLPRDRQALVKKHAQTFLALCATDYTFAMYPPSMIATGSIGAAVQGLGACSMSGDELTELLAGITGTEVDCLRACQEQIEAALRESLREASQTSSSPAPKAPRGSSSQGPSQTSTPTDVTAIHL
Sequence of LCK tyrosine kinase (P06239 223-509 P223M/C224D): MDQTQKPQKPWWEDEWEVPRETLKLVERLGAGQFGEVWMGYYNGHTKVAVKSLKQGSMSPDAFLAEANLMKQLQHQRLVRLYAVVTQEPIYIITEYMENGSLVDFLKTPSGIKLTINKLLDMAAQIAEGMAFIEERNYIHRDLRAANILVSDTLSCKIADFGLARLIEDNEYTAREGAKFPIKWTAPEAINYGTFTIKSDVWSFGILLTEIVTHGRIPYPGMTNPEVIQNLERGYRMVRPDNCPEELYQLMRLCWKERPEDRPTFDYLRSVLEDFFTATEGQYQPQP
T4 sequence (Q05397 409-689 P410T): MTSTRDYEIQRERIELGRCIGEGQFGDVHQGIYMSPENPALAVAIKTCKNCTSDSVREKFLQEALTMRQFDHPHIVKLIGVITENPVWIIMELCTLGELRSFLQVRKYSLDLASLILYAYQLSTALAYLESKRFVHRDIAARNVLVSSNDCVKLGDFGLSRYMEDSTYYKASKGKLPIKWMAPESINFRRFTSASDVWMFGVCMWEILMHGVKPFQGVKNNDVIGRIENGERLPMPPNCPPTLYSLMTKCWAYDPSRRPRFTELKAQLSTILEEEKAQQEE
T5 sequence (Q02763 775-1122): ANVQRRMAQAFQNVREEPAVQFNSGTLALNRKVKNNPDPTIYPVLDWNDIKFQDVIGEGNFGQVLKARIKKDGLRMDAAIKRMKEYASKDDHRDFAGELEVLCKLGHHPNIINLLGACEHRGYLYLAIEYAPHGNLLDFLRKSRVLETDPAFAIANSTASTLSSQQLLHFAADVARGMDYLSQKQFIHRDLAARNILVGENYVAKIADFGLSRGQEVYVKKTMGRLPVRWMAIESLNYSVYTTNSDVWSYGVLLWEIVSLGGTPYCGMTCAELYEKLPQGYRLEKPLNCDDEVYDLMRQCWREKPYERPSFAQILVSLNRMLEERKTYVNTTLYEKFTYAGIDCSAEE
Sequence of unphosphorylated VEGF-R2Δ50 (P35968 with tags, fused parts or gaps DEL940-989/E990V limits assumed): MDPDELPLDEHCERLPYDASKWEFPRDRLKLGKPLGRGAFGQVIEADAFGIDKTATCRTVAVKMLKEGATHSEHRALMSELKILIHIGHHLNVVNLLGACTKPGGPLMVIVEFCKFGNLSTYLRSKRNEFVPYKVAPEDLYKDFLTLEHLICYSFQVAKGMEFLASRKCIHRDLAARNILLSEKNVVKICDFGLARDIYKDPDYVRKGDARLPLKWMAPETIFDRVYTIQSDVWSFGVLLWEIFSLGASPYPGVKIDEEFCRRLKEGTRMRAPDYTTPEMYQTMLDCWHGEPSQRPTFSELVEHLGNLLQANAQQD
T1 sequence (P00518 2-299 limits assumed): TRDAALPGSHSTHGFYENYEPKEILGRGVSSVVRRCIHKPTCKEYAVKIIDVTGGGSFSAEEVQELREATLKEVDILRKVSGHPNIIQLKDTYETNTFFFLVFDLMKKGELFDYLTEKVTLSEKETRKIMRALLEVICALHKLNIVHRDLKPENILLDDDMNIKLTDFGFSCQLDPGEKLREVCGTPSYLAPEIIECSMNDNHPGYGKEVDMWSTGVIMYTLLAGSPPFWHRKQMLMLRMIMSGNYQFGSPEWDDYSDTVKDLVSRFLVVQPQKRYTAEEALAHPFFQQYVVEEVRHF
Sequence of human FGF-R1 (P11362 456-766 L457V/C488A/C584S): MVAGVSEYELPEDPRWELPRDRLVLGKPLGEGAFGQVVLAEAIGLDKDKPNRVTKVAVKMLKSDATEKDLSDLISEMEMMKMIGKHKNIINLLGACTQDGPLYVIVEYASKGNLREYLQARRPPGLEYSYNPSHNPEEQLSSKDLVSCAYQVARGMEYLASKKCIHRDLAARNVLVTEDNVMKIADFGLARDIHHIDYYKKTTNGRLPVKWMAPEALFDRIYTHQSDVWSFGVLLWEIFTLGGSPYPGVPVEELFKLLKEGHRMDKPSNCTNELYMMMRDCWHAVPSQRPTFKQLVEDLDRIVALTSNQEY

As for `C(=C\c1n[nH]c2cc(-c3ccccc3)ccc12)/c1ccccc1` [Reference Example 27(a), 6-phenyl-3-E-styryl-1H-indazole], the inhibition at 1 µM in series [1] was determined as 71%. Besides, in series [2], 10 µM produced 37% inhibition. Also, the inhibition at 5 µM at CDK4/Cyclin D3 complex [3] was 28%.

Turning to `COc1cc(O)ccc1-c1ccc2c(-c3nc4ccc(S(N)(=O)=O)cc4[nH]3)n[nH]c2c1` [Reference Example 25(i), 3-(5-Aminosulfonyl-1H-benzoimidaxol-2-yl)-6-(2-methoxy-4-hydroxy-phenyl)-1H-indazole], in the series with HCT-116, the IC50 is greater than 5 µM.

In the series with HCT-116, `CNC(=O)c1ccc2[nH]c(-c3n[nH]c4cc(-c5ccc(O)cc5OC)ccc34)nc2c1` [Reference Example 25(g), 3-(5-methylcarbamoyl-1H-benzoimidazol-2-yl)-6-(2-methoxy-4-hydroxyphenyl)-1H-indazole] came in with an IC50 of 2 µM. Further, the inhibition at 1 µM at human CHK1 (FL-CHK1) came out at 21%; at human FGF-R1 it was 82%; at LCK tyrosine kinase (read-out: Lck* (% inhibition)), 76%.

Turning to `C(=C\c1n[nH]c2cc(Sc3ccccc3)ccc12)/c1ccccc1` [8(c), 3-(E-styryl)-6-phenylsulfanyl-1H-indazole], the Ki at CDK4/Cyclin D3 complex [4] and on CDK2/Cyclin A complex was greater than 100 µM in each case. Moreover, the inhibition at 10 µM at human FAK (FAKcd409) was 15%; in [6] it was 31%. For the same compound, the IC50 in series [5] (Table 1) came out at 0.28 µM. For the same compound, the inhibition at 1 µM on LCK tyrosine kinase (setting [8]) was found to be 34%.

For `C(=C\c1n[nH]c2cc(Oc3ccccc3)ccc12)/c1ccccc1` [8(a), 3-(E-styryl)-6-phenoxy-1H-indazole], the inhibitory constant (Ki) on CDK4/Cyclin D3 complex [4] and at CDK2/Cyclin A complex was greater than 100 µM throughout. Also, the inhibition at 10 µM amounted to 3% at human FAK (FAKcd409) and 55% in series [6]. Moreover, the concentration for half-maximal inhibition (IC50) in series [5] is greater than 1 µM. For the same compound, the inhibition at 1 µM on LCK tyrosine kinase (setting [8]) came to 43%.

The compound `Oc1ccc(-c2ccc3c(-c4nc5ccccc5[nH]4)n[nH]c3c2)c(Oc2ccccc2)c1` [24(g), 3-1H-Benzoimidazol-2-yl-6-(2-phenoxy-4-hydroxyphenyl)-1H-indazole] showed an IC50 in the series with HCT-116 greater than 5 µM.

`O=C(Nc1cccc(Cl)c1)c1ccccc1Sc1ccc2c(/C=C\c3ccccn3)n[nH]c2c1` [Reference Example 33(h), 6-[2-(3-chlorophenylcarbamoyl)phenysulfanyl]-3-Z-[2-(pyridin-2-yl)ethenyl]-1H-indazole]: the “isomerization under assay conditions” value in [7] was “found to isomerize to Reference Example 33(d) under assay conditions”.
